Assay results: patent US7399775B2, “β-amyloid protein production/secretion inhibitor” (Daiichi Pharmaceutical Co., Ltd., priority 2001, dated 2008)

test system: β-amyloid protein (Aβ) production/secretion in E35 cells (H4 cells transfected with APP751); test: Cell-based assay for inhibition of production or secretion of β-amyloid protein (sandwich ELISA of Aβ in culture medium); set-up: species or system human; conditions: 24 h with compound, Aβ in medium by sandwich ELISA, read-out: Activity (EC50 class, inhibition of Aβ secreted in culture medium)
Method: Cell-Based Assay for Screening of a Compound Which Inhibits Production or Secretion of β-Amyloid Protein
E35 cells which were established by transfecting APP751 gene which is a wild type human β-amyloid protein precursor into human glioma cells (H4 cells), were used to analyze inhibitory activity of a compound against β-amyloid production. The amount of β protein (Aβ) secreted in a culture medium was measured by the sandwich enzyme-linked imunosorbent assay.
E35 cells were seeded in Dulbecco's Modified Eagle's Medium containing 10% inactivated fetal bovine serum on 96-well plates and cultured in humidified air and 5% CO2 at 37° C. in a CO2 incubator. Twenty-four hours after seeding of the cells, a test compound dissolved in DMSO was added to the medium. The DMSO solution of the compound was prepared so as to give the final concentration of DMSO in the medium 0.05%. The cells were cultured for additional twenty-four hours, and then the cultured medium was collected. The medium collected was applied to a 96-well ELISA plate on which a monoclonal antibody 25-1, which recognized Aβ25-35, was immobilized, followed by the incubation at 4° C. for 16 to 20 hours. After washing with a phosphate buffer (pH 7.4), a biotinylated monoclonal antibody MA32-40, which recognizes Aβ1-8, was added to the plate, and the plate was incubated at 4° C. for 2 hours. Then alkaline phosphatase-conjugated streptavidin was added to the plate. Alkaline phosphatase activity was measured by a […] assay using BlouPhos (manufactured by KPL) as a substrate. An amount of Aβ in the medium was calculated using a calibration curve separately created. EC50 of the test compound was presented as the concentration that gives 50% inhibitory activity compared to the control cells which were not treated with the compound.

Row | EC50 | Compound
1 | 50 to 500 nM | CSCCCC(C)C(c1cc(F)ccc1F)S(=O)(=O)c1ccc(Cl)cc1 (single isomer, unassigned) [Example 43 (Isomer 43-B), 2-[1-[(4-Chlorophenyl)sulfonyl]-2-methyl-5-(methylthio)pentyl]-1,4-difluorobenzene]

same assay, conditions: Homo sapiens, 24 h, 24 h with compound, Aβ in medium by sandwich ELISA, read-out: Activity (EC50 class, inhibition of Aβ secreted in culture medium)

Row | Compound | EC50
2 | CC(CCCCO)(c1cc(F)ccc1F)S(=O)(=O)c1ccc(Cl)cc1 (centres unmarked) [Example 17, 5-(4-Chlorophenylsulfonyl)-5-(2,5-difluorophenyl)-1-hexanol] | 500 to 5000 nM
3 | O=S(=O)(c1ccc(Cl)cc1)C(c1cc(F)ccc1F)c1cc(N2CCC[C@H]2CO)ncc1Cl (some centres unmarked) [Example 399] | ≤ 50 nM
4 | NCC1CN(c2cc(C(c3cc(F)ccc3F)S(=O)(=O)c3ccc(Cl)cc3)c(Cl)cn2)CCO1 (centres unmarked) [Example 402, 2-Aminomethyl-4-[5-chloro-4-[(4-chlorophenylsulfonyl)-(2,5-difluorophenyl)methyl]pyridin-2-yl]morpholine] | ≤ 50 nM
5 | CSCCCC(C)C(c1cc(F)ccc1F)S(=O)(=O)c1ccc(Cl)cc1 (single isomer, unassigned) [Example 43 (Isomer 43-A), 2-[1-[(4-Chlorophenyl)sulfonyl]-2-methyl-5-(methylthio)pentyl]-1,4-difluorobenzene] | 50 to 500 nM
6 | O=S(=O)(c1ccc(Cl)cc1)C(c1cc(F)ccc1F)c1cc(NCC[N+]2([O-])CCOCC2)ncc1Cl (centres unmarked) [Example 349, 4-[2-[5-Chloro-4-[(4-chlorophenylsulfonyl)-(2,5-difluorophenyl)methyl]pyridin-2-yl]aminoethyl]morpholine N-Oxide] | ≤ 50 nM
7 | CS(=O)(=O)CCCCC(c1cc(F)ccc1F)S(=O)(=O)c1ccc(Cl)cc1 (centres unmarked) [Example 27 (Compound A), 2-[1-[(4-Chlorophenyl)sulfonyl]-5-(methylsulfonyl)pentyl]-1,4-difluorobenzene] | 50 to 500 nM
8 | CCCCC(c1cc(F)ccc1F)[S+]([O-])c1ccc(Cl)cc1 (single isomer, unassigned) [Example 2 (Isomer 2-B), 2-[1-[(4-Chlorophenyl)sulfinyl]pentyl]-1,4-difluorobenzene] | 500 to 5000 nM
9 | [O-][S+](c1ccc(Cl)cc1)C(c1cc(F)ccc1F)c1ccncc1Cl (centres unmarked) [Example 344, 3-Chloro-4-[(4-chlorophenylsulfinyl)-(2,5-difluorophenyl)methyl]pyridine] | ≤ 50 nM

Second part, the compound after the results:

Row | EC50 | Compound
10 | 50 to 500 nM | O=S(=O)(c1ccc(Cl)cc1)C(c1ccc(CO)cn1)c1cc(F)ccc1F (centres unmarked) [Example 331, 2-[(4-chlorophenylsulfonyl)(2,5-difluorophenyl)methyl]-5-(hydroxymethyl)pyridine]
11 | 50 to 500 nM | CCCC(O)C(c1cc(F)ccc1F)S(=O)(=O)c1ccc(Cl)cc1 (centres unmarked) [Example 10, 1-[(4-Chlorophenyl)sulfonyl]-1-(2,5-difluorophenyl)-2-pentanol]
12 | 50 to 500 nM | CS(=O)(=O)NCc1ccc(C(c2cc(F)ccc2F)S(=O)(=O)c2ccc(Cl)cc2)nc1 (centres unmarked) [Example 370, N-[[6-(4-Chlorophenylsulfonyl)(2,5-difluorophenyl)methylpyridin-3-yl]methyl]methanesulfonamide]
13 | 50 to 500 nM | O=S(=O)(c1ccc(Cl)cc1)C(c1ccncc1)c1cc(F)ccc1F (centres unmarked) [Example 142, 4-[[(4-Chlorophenyl)sulfonyl]-(2,5-difluorophenyl)methyl]pyridine]
14 | 50 to 500 nM | COC(=O)OCc1ccc(C(c2cc(F)ccc2F)S(=O)(=O)c2ccc(Cl)cc2)nc1 (centres unmarked) [Example 372, [6-(4-Chlorophenylsulfonyl)(2,5-difluorophenyl)methylpyridin-3-yl]methyl Methyl Carbonate]
15 | 50 to 500 nM | CCCCC(c1cc(F)ccc1F)S(=O)(=O)c1ccc(Cl)cc1 (centres unmarked) [Example 3, 2-[1-[(4-Chlorophenyl)sulfonyl]pentyl]-1,4-difluorobenzene]
16 | ≤ 50 nM | O=S(=O)(c1ccc(Cl)cc1)C(c1cc(F)ccc1F)c1cc(Cl)ncc1Cl (centres unmarked) [Example 345, 2,5-Dichloro-4-[(4-chlorophenylsulfonyl)-(2,5-difluorophenyl)methyl]pyridine 0.5 hydrate]
17 | ≤ 50 nM | CNCCN(C)c1cc(C(c2cc(F)ccc2F)S(=O)(=O)c2ccc(Cl)cc2)c(Cl)cn1 (centres unmarked) [Example 397, 5-Chloro-4-[(4-chlorophenylsulfonyl)-(2,5-difluorophenyl)methyl]-2-[N-methyl-N-[2-(methylamino)ethyl]amino]pyridine]

test system: not given; test: not given; conditions: not given

Row | Compound | melting point
18 | O=C(c1ccncc1)N1CCC(c2cc(F)ccc2F)(S(=O)(=O)c2ccc(Cl)cc2)CC1 [Example 264, [4-[(4-Chlorophenyl)sulfonyl]-4-(2,5-difluorophenyl)piperidino](4-pyridyl)methanone] | 245 to 248 °C
19 | O=S(=O)(c1ccc(Cl)cc1)C1(c2nnn(Cc3ccccc3)n2)CCCCC1 [Example 197, 2-Benzyl-5-[1-(4-chlorobenzenesulfonyl)cyclohexyl]-2H-tetrazole] | 133 to 134 °C
20 | O=C(OCCC(c1cc(F)ccc1F)S(=O)(=O)c1ccc(Cl)cc1)N1CCN(c2ccccc2)CC1 (centres unmarked) [Example 212, 3-[(4-Chlorophenyl)sulfonyl]-3-(2,5-difluorophenyl)propyl=4-phenyl1-piperazinecarboxylate] | 127 to 129 °C
21 | CCCCCCC(c1cc(F)ccc1F)S(=O)(=O)c1ccc(Cl)cc1 (centres unmarked) [Example 323, 2-[1-(4-Chlorophenylsulfonyl)heptyl]-1,4-difluorobenzene] | 77 to 78 °C
22 | COC(=O)N1CCC(c2cc(F)ccc2F)(S(=O)(=O)c2ccc(Cl)cc2)CC1 [Example 267, Methyl 4-[(4-chlorophenyl)sulfonyl]-4-(2,5-difluorophenyl)-1-piperidinecarboxylate] | 123 to 126 °C
23 | CS(=O)(=O)N1CCC(c2cc(F)ccc2F)(S(=O)(=O)c2ccc(Cl)cc2)CC1 [Example 269, 4-[(4-Chlorophenyl)sulfonyl]-4-(2,5-difluorophenyl)-1-(methylsulfonyl)piperidine] | 176 to 178 °C
24 | O=S(=O)(c1ccc(Cl)cc1)C(CCSCCO)c1cc(F)ccc1F (centres unmarked) [Example 250, 2-[3-[(4-Chlorophenyl)sulfonyl]-3-(2,5-difluorophenyl)propylthio]ethanol] | 108 to 110 °C
25 | COc1cccc(C(CCCCS(C)(=O)=O)S(=O)(=O)c2ccc(Cl)cc2)c1 (centres unmarked) [Example 83, 1-[1-(4-Chlorophenylsulfonyl)-5-(methylsulfonyl)pentyl]-3-methoxybenzene] | 91 to 93 °C

The next lines start with the values.

Row | melting point | Compound
26 | 151 to 152 °C | O=S(=O)(c1ccc(Cl)cc1)C(c1ccc(CO)cn1)c1cc(F)ccc1F (centres unmarked) [Example 331, 2-[(4-chlorophenylsulfonyl)(2,5-difluorophenyl)methyl]-5-(hydroxymethyl)pyridine]
27 | 134.5 to 135 °C | CCCC(O)C(c1cc(F)ccc1F)S(=O)(=O)c1ccc(Cl)cc1 (centres unmarked) [Example 10, 1-[(4-Chlorophenyl)sulfonyl]-1-(2,5-difluorophenyl)-2-pentanol]
28 | 126 to 127 °C | O=S(=O)(c1ccc(Cl)cc1)C(c1ccncc1)c1cc(F)ccc1F (centres unmarked) [Example 142, 4-[[(4-Chlorophenyl)sulfonyl]-(2,5-difluorophenyl)methyl]pyridine]
29 | 184 to 185 °C | COc1cccnc1C(c1cc(F)ccc1F)S(=O)(=O)c1ccc(Cl)cc1 (centres unmarked) [Example 139, 2-[[(4-Chlorophenyl)sulfonyl]-(2,5-difluorophenyl)methyl]-3-methoxypyridine]
30 | 157 to 158 °C | O=C(O)CCC(c1cc(F)ccc1F)S(=O)(=O)c1ccc(Cl)cc1 (centres unmarked) [Example 200, 4-[(4-Chlorophenyl)sulfonyl]-4-(2,5-difluorophenyl)butyric Acid]
31 | 127 to 130 °C | O=S(=O)(c1ccc(Cl)cc1)C(Cc1cccs1)c1cc(F)ccc1F (centres unmarked) [Example 295, 2-[2-[(4-Chlorophenyl)sulfonyl]-2-(2,5-difluorophenyl)ethyl]thiophene]
32 | 193 to 194 °C | CCOC(=O)C(=O)NCc1ccc(C(c2cc(F)ccc2F)S(=O)(=O)c2ccc(Cl)cc2)nc1 (centres unmarked) [Example 357, Ethyl 2-[[6-[(4-chlorophenylsulfonyl)(2,5-difluorophenyl)methyl]pyridin-3-yl]methylamino]-2-oxoacetate]
